Laboratory results reported in patent US20110118277A1, “METHOD OF TREATING LIVER DISEASE” (priority 2003, published 2011).

Key:
[1] = test system: Mouse hepatic oval cells (HOC); test: Oval cell growth in culture (WST-8 cell number assay); type: cell-based; settings: 48 hours; for effect on NE-induced oval cell proliferation: prazosin 10 μM; for effect on NE-induced oval cell proliferation / effect on ISO-induced oval cell proliferation: pertussis toxin 100 ng/ml, PD98059 20 μM, SB202190 10 μM; for effect on ISO-induced oval cell proliferation: propranolol 10 μM
Method: Mouse hepatic oval cells (HOC) (from Dr. Bryon Petersen, University of Florida College of Medicine, Gainesville, Fla.) were maintained in culture with Iscove's modified DMEM according to the protocol described in PNAS 99: 8078-8083, 2002. To confirm that the cells retained their oval cell phenotype in our hands, expression of the embryonic isoform of pyruvate kinase (M2-PK) was evaluated by immunocytochemistry and immunoblot.
Sub-confluent HOC were harvested by gentle trypsinisation and resuspended in serum-free Iscove's modified Dulbecco's minimal essential medium (DMEM), at a density of 5,000 cells/100 μl/well in 96-well plates. […] After 44 hours, cell numbers were assessed by a further 4 h incubation with WST-8 tetrazolium reagent (Dojindo Molecular Technologies, Gaithersburg, Md.) as described in J Clin Invest 106: 501-509, 2000. In viable cells, the tetrazolium salt is metabolized to a colorimetric dye and cell number is proportional to the signal intensity at 450 nm Therefore, this assay reliably detects treatment-induced changes in cell number.
Oval cells were cultured in serum free medium (SF), serum or serum plus increasing concentrations of NE (a) or ISO (c). After 48 hours, the numbers of cells in culture were evaluated. […] Cell numbers were determined after 48 hours.

[2] = test system: oval cells; test: Oval cell accumulation in Dbh-deficient mice fed MCD diet plus ethionine; type: in vivo, mouse; settings: 4 weeks, ISO infused, FIG. 11
Excerpt: Male Dbh* C57B 116 mice and their heterozygous littermates were generated and maintained as previously described in Cell 91: 583-592, 1997, and used at 30-40 weeks of age. Wild type C57B 116 mice were from Jackson Laboratory (Bar Harbor, Me.) Animals were allowed access to diets and water ad libitum. To induce oval cell expansion, mice were fed methionine choline deficient diets (ICN, Aurora, Ohio) supplemented with 0.15% Ethionine in the drinking water for 4 weeks. […]
Details of the staining procedures are as described in Am J Pathol 161: 521-530, 2002. […] Mouse monoclonal OV6 antibody and rat anti-cytokeratin 19 were detected using the DAKO Animal Research Kit, peroxidase (Dako, Denmark). The rabbit polyclonal antibody against 56 and 64 kiD human callus cytokeratins was detected by anti-rabbit Envision (Dako, Denmark) as described in J Pathol 199:191-200, 2003. […]
For each liver section, the number of oval cells in 5, randomly selected, non-overlapping, high power (×40 objective) fields was counted. […] Interlobular bile ducts were not considered progenitor cells and, thus not counted as such.
Dbh* and their control Dbh* littermates were fed methionine choline deficient (MCD) diets to induce oval cell expansion. […] Oval cell numbers were counted in 5 randomly selected fields/section from 4 mice/group. […]

Compound	effect on proliferation of cultured oval cells ([1]; 5% serum)	effect on NE-induced oval cell proliferation [1]	effect on ISO-induced oval cell proliferation [1]	also measured
CC(C)NCC(O)c1ccc(O)c(O)c1 (centres unmarked) [ISO, isoprenaline]	promotes the proliferation of oval cells	–	–	concentration of peak proliferative activity (biphasic), first peak ([1]; ISO, 5% serum): 100 nM; concentration of peak proliferative activity (biphasic), second peak ([1]; ISO, 5% serum): 10 mM; hepatic oval cell accumulation in Dbh-deficient mice [2]: p<0.05 Dbh*+ISO versus Dbh*
NC[C@H](O)c1ccc(O)c(O)c1 [NE, norepinephrine]	significantly promote the proliferation of cultured oval cells	–	–	concentration of maximal proliferative effect ([1]; NE, 5% serum): 100 nM; concentration up to which the proliferative effect persists ([1]; NE, 5% serum): up to 100 μM
COc1cccc(-c2cc(=O)c3ccccc3o2)c1N [PD98059]	–	significantly attenuated	significantly attenuated	–
Oc1ccc(-c2nc(-c3ccncc3)c(-c3ccc(F)cc3)[nH]2)cc1 [SB202190]	–	tends to reduce the effect of NE and ISO, but this is not statistically significant	tends to reduce the effect of NE and ISO, but this is not statistically significant	–
CC(C)NCC(O)COc1cccc2ccccc12 (centres unmarked) [propranolol]	–	–	attenuated	–
pertussis toxin	–	significantly attenuated	significantly attenuated	–
